According to ChEMBL document CHEMBL1201862, “PubChem BioAssay data set” (2004):
The source made the active and inactive calls.

What was measured:
[1] = target: T1, Histone-lysine N-methyltransferase NSD2 (Homo sapiens, UniProt O96028); type: biochemical
T1 sequence (O96028 whole entry): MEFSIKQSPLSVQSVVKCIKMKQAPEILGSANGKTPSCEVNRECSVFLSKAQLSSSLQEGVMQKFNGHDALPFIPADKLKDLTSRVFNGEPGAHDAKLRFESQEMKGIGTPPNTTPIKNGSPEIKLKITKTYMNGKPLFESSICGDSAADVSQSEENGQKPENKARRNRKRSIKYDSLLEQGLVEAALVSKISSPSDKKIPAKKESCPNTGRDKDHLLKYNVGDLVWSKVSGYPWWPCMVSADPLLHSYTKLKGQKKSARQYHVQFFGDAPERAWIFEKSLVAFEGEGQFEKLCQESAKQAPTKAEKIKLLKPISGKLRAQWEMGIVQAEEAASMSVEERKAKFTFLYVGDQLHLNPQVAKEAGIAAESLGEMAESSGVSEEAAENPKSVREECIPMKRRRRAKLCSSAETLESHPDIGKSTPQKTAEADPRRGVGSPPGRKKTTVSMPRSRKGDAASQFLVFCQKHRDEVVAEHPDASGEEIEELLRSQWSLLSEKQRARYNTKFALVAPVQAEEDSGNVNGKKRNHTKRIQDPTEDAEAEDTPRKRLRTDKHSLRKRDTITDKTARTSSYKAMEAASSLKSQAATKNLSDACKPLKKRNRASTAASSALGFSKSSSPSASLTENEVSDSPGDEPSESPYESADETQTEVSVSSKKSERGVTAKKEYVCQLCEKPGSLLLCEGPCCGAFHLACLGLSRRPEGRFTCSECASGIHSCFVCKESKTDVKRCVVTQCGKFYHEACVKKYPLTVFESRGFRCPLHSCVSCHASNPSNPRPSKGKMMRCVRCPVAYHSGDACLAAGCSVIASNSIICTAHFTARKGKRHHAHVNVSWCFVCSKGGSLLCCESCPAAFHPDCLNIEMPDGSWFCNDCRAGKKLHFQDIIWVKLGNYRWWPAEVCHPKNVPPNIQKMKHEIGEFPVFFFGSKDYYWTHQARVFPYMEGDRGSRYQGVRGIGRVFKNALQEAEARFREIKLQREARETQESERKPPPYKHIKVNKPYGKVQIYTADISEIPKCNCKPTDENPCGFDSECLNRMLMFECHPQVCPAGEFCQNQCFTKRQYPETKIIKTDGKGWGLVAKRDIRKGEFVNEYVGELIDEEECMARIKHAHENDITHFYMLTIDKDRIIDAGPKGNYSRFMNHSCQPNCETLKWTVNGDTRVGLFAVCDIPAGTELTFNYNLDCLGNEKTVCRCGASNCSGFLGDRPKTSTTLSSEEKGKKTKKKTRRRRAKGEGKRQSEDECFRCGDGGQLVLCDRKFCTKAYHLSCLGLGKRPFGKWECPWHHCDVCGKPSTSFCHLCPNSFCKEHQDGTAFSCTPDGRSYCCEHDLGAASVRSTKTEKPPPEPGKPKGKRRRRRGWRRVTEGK

[2] = target: Heat shock protein HSP 90-alpha (Homo sapiens, UniProt P07900); type: functional, organism-based
cells = type: functional, cell-based
Exodeoxyribonuclease V = Exodeoxyribonuclease V (Escherichia coli (strain K12), UniProt P04993+P07648+P08394); test: E. coli RecBCD inhibitors, dose response, counter-screen for AddAB inhibitor project, absorbance, V66 E. coli, mutant T4 phage (AID 492957); type: functional, cell-based, Escherichia coli str. K-12 substr. MG1655
[3] = target: Bifunctional protein GlmU (Mycobacterium tuberculosis, UniProt P9WMN3); test: Inhibitors of Mycobacterial Glucosamine-1-phosphate acetyl transferase (GlmU). Secondary screen.; set-up: species or system Mycobacterium tuberculosis H37Rv
[4] = target: Likely tRNA 2'-phosphotransferase (Candida albicans (strain SC5314 / ATCC MYA-2876) (Yeast), UniProt Q5A7N4); test: TPT1 tRNA phosphotransferase inhibitors, dose response, biochemical, fluorescence polarization (AID 2160)
[5] = target: T2, Apoptotic protease-activating factor 1 (Homo sapiens, UniProt O14727); type: functional
T2 sequence (O14727 whole entry): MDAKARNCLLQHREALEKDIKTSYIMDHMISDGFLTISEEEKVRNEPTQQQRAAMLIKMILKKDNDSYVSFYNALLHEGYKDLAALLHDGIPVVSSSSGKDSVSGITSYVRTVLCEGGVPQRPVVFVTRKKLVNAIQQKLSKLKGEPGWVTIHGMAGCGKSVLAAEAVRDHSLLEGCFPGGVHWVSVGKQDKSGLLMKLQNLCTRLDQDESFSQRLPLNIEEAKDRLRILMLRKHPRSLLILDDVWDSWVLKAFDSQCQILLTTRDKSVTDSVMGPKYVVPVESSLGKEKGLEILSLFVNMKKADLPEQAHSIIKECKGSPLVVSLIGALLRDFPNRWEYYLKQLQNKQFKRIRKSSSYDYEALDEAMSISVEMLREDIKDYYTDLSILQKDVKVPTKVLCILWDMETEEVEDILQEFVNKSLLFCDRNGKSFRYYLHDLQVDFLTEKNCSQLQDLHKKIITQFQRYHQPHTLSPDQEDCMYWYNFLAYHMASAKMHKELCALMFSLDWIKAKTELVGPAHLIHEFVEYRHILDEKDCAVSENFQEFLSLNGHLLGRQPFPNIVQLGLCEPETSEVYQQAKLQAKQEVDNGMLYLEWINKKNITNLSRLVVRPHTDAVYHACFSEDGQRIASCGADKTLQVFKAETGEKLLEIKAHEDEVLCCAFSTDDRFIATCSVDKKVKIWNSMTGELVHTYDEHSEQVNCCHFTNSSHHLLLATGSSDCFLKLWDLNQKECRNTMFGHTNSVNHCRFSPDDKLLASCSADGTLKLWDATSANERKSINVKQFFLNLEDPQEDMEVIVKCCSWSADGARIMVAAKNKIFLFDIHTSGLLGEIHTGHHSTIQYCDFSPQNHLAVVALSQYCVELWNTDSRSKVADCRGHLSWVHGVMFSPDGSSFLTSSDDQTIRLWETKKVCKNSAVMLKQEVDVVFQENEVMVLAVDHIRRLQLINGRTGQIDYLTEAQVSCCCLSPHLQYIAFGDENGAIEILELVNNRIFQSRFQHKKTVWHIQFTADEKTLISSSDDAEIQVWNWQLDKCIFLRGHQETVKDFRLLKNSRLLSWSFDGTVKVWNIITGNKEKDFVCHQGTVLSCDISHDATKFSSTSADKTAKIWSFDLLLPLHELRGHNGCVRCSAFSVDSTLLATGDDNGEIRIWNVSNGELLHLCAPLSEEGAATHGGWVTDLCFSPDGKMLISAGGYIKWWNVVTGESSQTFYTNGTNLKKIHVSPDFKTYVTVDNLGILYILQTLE

Cytochrome P450 2C19 = Cytochrome P450 2C19 (Homo sapiens, UniProt P33261); test: Cytochrome panel assay with activity outcomes. Panel member name: p450-cyp2c19 Compounds with AC50 equal or less than 10 uM are considered active; type: functional; conditions: read-out: AC50
Chain of Cytochrome P450 2C19 (P33261 whole entry): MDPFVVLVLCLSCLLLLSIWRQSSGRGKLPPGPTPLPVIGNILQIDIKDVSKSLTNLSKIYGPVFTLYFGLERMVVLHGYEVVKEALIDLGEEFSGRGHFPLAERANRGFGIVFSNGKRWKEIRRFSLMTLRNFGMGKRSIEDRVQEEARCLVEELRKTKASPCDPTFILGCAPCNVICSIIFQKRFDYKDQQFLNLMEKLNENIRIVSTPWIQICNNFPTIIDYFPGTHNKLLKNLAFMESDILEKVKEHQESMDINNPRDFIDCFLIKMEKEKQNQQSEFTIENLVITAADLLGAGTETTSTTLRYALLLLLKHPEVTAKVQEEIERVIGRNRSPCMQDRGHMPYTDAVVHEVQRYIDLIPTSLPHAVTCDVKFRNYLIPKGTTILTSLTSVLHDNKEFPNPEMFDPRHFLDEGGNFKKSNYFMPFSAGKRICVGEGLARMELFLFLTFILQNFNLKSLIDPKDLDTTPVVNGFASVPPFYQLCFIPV

Chain of Bifunctional protein GlmU (P9WMN3 whole entry): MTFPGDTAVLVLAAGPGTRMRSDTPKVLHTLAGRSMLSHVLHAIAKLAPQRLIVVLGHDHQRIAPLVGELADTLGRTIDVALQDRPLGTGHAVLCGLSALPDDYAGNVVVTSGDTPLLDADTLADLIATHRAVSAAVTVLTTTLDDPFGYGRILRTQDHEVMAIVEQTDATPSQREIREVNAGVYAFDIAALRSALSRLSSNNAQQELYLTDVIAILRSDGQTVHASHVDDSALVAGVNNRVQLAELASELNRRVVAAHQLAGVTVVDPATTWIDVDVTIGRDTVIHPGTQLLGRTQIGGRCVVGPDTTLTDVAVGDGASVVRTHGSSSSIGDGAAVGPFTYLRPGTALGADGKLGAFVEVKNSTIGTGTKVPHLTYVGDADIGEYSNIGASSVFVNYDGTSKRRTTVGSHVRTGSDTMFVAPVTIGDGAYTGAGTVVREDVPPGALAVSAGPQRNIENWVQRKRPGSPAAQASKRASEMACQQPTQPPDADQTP
Chain of Exodeoxyribonuclease V (P04993 whole entry): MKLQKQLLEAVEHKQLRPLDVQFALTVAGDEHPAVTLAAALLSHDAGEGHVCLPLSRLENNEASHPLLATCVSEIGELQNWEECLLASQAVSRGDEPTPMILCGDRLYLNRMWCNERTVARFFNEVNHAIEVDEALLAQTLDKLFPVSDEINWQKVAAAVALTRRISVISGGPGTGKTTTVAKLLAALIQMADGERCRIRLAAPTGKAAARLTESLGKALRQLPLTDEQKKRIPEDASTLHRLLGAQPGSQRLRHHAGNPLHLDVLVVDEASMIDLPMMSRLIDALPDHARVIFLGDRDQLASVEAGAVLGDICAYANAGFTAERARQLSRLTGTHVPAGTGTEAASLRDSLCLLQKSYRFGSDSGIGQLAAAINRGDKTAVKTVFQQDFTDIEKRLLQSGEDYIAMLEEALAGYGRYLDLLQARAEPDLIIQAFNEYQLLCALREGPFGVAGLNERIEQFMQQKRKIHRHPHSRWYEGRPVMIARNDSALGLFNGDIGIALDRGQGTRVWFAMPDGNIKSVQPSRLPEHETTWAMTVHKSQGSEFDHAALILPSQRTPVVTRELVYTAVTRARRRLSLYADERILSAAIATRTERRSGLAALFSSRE
Chain of Exodeoxyribonuclease V (P07648 whole entry): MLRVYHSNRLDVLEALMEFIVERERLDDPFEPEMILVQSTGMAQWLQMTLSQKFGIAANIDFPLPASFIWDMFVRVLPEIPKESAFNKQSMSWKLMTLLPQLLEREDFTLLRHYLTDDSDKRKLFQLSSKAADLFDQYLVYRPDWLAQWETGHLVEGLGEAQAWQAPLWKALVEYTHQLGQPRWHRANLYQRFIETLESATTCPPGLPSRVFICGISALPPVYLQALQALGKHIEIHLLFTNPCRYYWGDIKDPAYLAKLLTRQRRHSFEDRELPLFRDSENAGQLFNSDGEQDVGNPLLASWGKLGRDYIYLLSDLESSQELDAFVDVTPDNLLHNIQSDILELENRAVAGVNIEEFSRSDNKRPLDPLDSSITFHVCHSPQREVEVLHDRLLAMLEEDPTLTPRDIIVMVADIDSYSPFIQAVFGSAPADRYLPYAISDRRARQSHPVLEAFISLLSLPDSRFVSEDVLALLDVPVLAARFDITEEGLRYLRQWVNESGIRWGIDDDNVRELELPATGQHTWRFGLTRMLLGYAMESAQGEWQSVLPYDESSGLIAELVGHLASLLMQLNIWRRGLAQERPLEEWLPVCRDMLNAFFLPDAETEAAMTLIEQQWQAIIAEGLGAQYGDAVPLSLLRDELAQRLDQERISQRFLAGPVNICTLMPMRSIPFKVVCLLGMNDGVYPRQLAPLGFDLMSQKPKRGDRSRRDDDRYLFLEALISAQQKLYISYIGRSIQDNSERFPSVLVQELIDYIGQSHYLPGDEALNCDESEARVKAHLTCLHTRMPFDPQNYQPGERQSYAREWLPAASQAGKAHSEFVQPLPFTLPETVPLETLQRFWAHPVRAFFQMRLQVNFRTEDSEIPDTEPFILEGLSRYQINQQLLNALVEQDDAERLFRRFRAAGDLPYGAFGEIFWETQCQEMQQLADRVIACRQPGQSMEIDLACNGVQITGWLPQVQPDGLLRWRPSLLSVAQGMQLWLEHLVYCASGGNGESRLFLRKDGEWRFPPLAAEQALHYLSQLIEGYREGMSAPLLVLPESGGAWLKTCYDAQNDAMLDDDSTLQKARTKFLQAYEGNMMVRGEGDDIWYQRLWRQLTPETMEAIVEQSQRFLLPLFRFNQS
Chain of Exodeoxyribonuclease V (P08394 whole entry): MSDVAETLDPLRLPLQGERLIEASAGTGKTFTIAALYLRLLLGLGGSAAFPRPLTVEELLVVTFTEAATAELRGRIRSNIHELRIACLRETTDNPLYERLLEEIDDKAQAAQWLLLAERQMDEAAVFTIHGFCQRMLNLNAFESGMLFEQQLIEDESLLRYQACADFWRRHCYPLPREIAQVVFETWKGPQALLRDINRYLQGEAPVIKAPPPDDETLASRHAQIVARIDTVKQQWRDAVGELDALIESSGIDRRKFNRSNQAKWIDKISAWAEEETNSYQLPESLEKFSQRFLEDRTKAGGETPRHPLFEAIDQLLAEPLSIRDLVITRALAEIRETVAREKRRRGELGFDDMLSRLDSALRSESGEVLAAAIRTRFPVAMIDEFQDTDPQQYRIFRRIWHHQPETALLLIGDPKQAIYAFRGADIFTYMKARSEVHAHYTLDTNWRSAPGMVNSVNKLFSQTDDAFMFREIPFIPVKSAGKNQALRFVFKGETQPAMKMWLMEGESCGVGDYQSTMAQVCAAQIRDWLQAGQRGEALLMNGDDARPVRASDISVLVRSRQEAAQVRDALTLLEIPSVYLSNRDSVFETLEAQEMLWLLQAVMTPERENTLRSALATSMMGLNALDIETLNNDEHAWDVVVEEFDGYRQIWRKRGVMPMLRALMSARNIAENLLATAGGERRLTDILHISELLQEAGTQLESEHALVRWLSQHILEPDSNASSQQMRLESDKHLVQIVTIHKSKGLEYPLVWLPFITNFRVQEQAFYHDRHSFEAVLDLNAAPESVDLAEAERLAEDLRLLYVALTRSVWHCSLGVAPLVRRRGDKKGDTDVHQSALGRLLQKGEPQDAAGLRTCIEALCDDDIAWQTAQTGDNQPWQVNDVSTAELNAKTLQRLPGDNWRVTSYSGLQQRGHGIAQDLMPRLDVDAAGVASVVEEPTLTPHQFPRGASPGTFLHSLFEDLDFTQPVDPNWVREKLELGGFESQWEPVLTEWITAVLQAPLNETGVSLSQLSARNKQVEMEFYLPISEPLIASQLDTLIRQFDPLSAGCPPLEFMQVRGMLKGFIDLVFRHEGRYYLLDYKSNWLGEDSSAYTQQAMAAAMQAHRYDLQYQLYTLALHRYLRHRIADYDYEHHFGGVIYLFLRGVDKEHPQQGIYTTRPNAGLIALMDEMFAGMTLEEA
Chain of Likely tRNA 2'-phosphotransferase (Q5A7N4 whole entry): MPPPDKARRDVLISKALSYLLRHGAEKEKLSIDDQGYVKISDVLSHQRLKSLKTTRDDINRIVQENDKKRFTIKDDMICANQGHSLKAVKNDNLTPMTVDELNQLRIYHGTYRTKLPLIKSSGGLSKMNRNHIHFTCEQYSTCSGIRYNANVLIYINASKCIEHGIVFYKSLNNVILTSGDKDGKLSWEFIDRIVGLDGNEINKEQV

SMILES: O=C1CCN2C=Nc3cccc4ccc1c2c34
- AC50 [1]: 9.91 µM (active)

SMILES: Oc1ccc2ccccc2c1/C=N/Nc1nnc(-c2ncc[nH]2)c2ccccc12
- AC50 [2]: 3.53 µM (active)
- EC50 (cells): 82.8 µM (active)
- IC50 (Exodeoxyribonuclease V): > 119 µM (inactive)

SMILES: CC(C)C(C(=O)O)N1C(=O)/C(=C/C=C/c2ccco2)SC1=S (stereo not drawn)
- IC50 [3]: 47.9 µM (active)
- IC50 [4]: 20.5 µM (not active)
- IC50 [5]: > 100 µM (inactive)
- AC50 (Cytochrome P450 2C19): 10 µM (inconclusive)
